Earlier results, collected in patent US11554003B2, “Filtration devices and methods related thereto” (The Regents of the University of California, priority 2015, dated 2023).

Details: IAC; regardless of infused dose

## COc1cccc2c1C(=O)c1c(O)c3c(c(O)c1C2=O)C[C@@](O)(C(=O)CO)C[C@@H]3O[C@H]1C[C@H](N)[C@H](O)[C@H](C)O1 [Dox, doxorubicin]
  first pass hepatic clearance: 50-70%
